In ChEMBL document CHEMBL4808180, “Identification of 2,2-Dimethylbutanoic Acid (HST5040), a Clinical Development Candidate for the Treatment of Propionic Acidemia and Methylmalonic Acidemia” (J Med Chem, 2021):
pEC50: −log10 of the molar value.

Tests used:
[1] = Drug metabolism in Sprague-Dawley rat plasma assessed as HST5040-glycine metabolite formation at 10 mg/kg administered as single dose using radiolabeled compound by LC/MS analysis; format: ADME, organism-based; details: in vivo
[2] = Volume of distribution of CD1 mouse at 30 mg/kg, iv; format: ADME, organism-based; details: in vivo
[3] = Reduction of CoASH in human hepatocytes derived from methylmalonic acidemia at 30 uM pretreated for 30 mins followed by 13C-isoleucine addition and measured after 1 hr by MS/MS analysis; format: functional, Hepatocyte; parameters: scale not given: the % may be the effect or the level left; details: time 90 min, 1.5 h
[4] = Half life in CD1 mouse at 30 mg/kg, po; format: ADME, organism-based; details: in vivo
[5] = Drug metabolism in Sprague-Dawley rat plasma assessed as HST5040-glucuronide metabolite formation at 10 mg/kg administered as single dose by LC/MS analysis; format: ADME, organism-based; details: in vivo
[6] = Drug metabolism in Sprague-Dawley rat feces assessed as HST5040-glycine metabolite formation at 10 mg/kg administered as single dose by LC/MS analysis; format: ADME, organism-based; details: in vivo
[7] = Half life in Sprague-Dawley rat blood at 10 mg/kg, po by quantitative whole-body autoradiography; format: ADME, organism-based; details: in vivo
[8] = Cmax in CD1 mouse at 100 mg/kg, po; format: ADME, organism-based; parameters: route oral, dose 100 mg/kg; details: in vivo
[9] = target: Bile salt export pump (Homo sapiens, UniProt O95342); experiment: Inhibition of human BSEP assessed as reduction in BSEP-mediated taurocholate transport at 345 uM relative to control
Chain of Bile salt export pump (O95342 whole entry): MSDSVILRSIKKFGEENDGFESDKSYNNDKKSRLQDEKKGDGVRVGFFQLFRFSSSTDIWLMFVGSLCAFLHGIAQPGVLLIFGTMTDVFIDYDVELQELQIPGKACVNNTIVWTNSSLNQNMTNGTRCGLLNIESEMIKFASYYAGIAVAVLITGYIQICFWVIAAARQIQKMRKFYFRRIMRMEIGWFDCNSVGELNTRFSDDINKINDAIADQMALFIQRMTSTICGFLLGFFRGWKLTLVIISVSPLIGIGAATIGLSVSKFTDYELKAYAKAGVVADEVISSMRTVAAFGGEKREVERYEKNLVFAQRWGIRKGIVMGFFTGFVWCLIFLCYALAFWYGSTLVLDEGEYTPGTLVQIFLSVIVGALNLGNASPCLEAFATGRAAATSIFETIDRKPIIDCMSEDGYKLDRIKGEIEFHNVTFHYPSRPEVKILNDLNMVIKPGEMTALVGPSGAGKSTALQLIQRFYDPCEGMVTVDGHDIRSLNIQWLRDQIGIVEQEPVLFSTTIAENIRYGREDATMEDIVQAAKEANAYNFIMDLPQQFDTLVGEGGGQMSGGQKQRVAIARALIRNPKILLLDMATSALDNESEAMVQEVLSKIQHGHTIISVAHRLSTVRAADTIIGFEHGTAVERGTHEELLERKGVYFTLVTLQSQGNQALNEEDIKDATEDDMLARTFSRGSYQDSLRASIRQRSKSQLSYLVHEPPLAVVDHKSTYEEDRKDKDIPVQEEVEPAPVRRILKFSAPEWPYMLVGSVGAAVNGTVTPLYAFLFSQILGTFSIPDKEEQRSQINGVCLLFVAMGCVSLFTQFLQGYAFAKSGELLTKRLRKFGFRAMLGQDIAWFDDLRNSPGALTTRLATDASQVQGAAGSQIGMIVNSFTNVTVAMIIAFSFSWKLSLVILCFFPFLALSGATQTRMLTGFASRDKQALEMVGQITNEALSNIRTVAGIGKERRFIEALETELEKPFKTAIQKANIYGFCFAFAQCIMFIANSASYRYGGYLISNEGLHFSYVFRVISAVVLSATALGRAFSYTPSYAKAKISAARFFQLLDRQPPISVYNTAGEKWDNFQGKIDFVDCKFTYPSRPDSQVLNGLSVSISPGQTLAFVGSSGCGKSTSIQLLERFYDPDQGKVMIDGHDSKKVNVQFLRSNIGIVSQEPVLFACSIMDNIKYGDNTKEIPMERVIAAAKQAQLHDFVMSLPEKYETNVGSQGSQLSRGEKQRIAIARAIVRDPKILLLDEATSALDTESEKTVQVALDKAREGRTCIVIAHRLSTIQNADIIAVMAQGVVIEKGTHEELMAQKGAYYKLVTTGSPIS

[10] = Drug excretion in Gottingen minipig feces at 10 mg/kg, po using radiolabeled compound by quantitative whole-body autoradiography; format: ADME, organism-based, Sus scrofa domesticus; details: pig, in vivo
[11] = Tmax in CD1 mouse at 300 mg/kg, po; format: ADME, organism-based; details: in vivo
[12] = Reduction of CoASH in human hepatocytes derived from propionic acidemia patient pretreated for 30 mins followed by 13C-isoleucine addition and measured after 1 hr by MS/MS analysis; format: functional, cell-based; details: hepatocyte
[13] = Drug metabolism in rat hepatocytes assessed as formation of 2,2-dimethylbutanoic acid-CoA incubated for 1 hrs by MS/MS analysis; format: ADME, cell-based; details: Hepatocyte
[14] = Half life in Sprague-Dawley rat at 10 mg/kg, po; format: ADME, organism-based; details: in vivo

Drug metabolism [1]: Metabolite_Detected | Vd [2]: 0.469 L/kg | half-life [4]: 35.4 min | Drug metabolism [5]: Metabolite_Detected | Drug metabolism [6]: Metabolite_Detected | t1/2 [7]: 150 min | Cmax [8]: 118 µg/mL | Drug excretion [10]: 2.26% | Tmax [11]: 30 min | half-life [14]: 190 min
SMILES: CCC(C)(C)C(=O)O [DIMEBUTIC ACID]
Activity [3]: -22.3% | inhibition (INH) [9]: Not Active | pEC50 [12]: 4.94 | pEC50 [13]: 3.69
